Experimental data: ChEMBL document CHEMBL4420078, “Sos1 inhibitors for cancer treatment” (2016)
Active and inactive are the calls of the source. No cut-off for these calls is given here.

Key:
[1] = test system: MIA PaCa-2; assay: Growth inhibition of human MIAPaCa2 cells at 30 uM incubated for 3 days by MTS assay relative to control; type: functional; conditions: MIA PaCa-2, 72 h, read-out: GI
[2] = test system: OVCAR-3; assay: Antiproliferative activity against human OVCAR3 cells assessed as reduction in cell number incubated for 48 hrs by MTS assay; type: functional, cell-based
[3] = biological target: T1, Son of sevenless homolog 1 (Mus musculus) (UniProt Q62245); assay: Inhibition of SOS1 in overnight serum-starved mouse MEF assessed as reduction in cell proliferation at 10 to 40 uM incubated for 3 days by MTS assay; type: cell-based
T1 sequence (whole entry): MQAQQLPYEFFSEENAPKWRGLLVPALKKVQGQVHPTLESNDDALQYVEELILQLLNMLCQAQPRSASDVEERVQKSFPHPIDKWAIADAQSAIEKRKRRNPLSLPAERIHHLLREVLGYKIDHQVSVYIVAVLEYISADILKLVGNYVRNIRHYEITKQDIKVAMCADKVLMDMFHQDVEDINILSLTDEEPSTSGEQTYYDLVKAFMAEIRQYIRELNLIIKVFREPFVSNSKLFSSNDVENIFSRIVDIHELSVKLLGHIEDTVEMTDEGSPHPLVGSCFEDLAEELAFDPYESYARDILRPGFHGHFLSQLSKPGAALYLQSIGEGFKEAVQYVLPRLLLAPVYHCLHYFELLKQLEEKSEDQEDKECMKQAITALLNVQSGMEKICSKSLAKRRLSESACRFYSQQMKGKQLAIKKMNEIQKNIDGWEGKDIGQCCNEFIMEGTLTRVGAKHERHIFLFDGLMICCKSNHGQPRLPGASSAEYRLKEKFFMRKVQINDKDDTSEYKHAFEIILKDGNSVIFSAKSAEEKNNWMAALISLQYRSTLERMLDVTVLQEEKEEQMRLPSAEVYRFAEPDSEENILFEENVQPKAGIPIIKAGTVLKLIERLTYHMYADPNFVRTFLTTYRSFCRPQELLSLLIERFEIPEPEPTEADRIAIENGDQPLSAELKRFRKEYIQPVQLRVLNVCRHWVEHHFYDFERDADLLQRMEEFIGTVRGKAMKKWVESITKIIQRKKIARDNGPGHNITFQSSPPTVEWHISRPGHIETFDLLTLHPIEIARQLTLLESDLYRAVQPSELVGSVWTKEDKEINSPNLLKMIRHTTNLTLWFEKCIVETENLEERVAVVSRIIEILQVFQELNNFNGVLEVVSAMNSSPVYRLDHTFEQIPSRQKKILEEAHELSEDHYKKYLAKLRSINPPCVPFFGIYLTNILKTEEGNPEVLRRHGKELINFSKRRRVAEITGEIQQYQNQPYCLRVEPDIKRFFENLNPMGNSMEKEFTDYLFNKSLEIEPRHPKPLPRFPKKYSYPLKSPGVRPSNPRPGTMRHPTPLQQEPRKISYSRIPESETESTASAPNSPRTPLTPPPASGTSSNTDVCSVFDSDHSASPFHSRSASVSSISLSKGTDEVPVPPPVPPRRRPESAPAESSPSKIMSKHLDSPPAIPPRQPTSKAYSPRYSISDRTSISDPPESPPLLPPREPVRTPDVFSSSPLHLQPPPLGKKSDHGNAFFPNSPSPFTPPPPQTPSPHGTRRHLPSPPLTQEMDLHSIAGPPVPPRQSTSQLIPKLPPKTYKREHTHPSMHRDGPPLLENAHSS

[4] = biological target: T2, Son of sevenless homolog 1 (Homo sapiens) (UniProt Q07889); assay: Inhibition of SOS1 in human DU145 cells assessed as reduction in cell proliferation at 40 to 100 uM incubated for 3 days and measured every 24 hrs by MTS assay; type: cell-based
T2 sequence (whole entry): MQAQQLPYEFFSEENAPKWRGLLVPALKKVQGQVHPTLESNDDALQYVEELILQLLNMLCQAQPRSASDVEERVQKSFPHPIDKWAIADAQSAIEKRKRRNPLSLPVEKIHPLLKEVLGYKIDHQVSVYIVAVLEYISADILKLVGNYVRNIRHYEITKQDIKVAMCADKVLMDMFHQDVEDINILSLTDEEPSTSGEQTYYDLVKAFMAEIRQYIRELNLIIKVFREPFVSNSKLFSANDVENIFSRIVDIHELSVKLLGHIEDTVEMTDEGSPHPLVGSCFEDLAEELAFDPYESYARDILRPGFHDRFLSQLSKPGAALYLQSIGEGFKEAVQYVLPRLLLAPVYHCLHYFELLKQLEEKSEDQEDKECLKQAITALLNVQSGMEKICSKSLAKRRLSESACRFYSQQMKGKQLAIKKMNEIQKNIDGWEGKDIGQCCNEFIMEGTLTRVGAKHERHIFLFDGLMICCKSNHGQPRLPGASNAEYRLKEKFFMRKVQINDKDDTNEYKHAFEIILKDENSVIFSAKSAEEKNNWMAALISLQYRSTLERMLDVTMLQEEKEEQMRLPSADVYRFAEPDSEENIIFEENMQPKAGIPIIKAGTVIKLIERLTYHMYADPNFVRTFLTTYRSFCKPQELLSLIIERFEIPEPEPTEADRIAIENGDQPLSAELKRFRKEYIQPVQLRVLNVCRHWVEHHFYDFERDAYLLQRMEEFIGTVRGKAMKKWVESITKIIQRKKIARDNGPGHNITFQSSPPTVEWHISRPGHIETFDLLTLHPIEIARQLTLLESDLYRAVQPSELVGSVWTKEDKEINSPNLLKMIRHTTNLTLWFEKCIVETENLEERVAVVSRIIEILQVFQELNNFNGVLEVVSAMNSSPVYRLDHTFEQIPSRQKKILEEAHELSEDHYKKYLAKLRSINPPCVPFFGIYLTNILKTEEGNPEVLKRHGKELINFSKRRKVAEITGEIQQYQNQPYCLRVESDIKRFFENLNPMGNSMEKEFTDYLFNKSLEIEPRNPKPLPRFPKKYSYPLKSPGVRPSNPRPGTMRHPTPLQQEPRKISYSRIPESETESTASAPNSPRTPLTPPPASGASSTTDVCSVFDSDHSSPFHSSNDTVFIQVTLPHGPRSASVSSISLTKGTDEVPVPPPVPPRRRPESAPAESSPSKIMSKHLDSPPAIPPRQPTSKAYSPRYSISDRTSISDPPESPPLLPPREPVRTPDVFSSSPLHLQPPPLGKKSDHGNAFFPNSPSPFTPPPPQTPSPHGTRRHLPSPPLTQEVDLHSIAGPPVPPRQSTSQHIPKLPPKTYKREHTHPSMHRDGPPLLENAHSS

O=C1Oc2ccccc2C(=O)/C1=C/N1C(=O)/C(=C/c2ccc([N+](=O)[O-])cc2)SC1=S
inhibition of growth at 30 µM [1]: 8% | Activity [2]: Active | inhibition [3]: Active

O=C(O)c1cc2c3c(c1)C1C=CCC1C(c1ccccc1Cl)N3CC1CC=CC21 (centres undefined)
inhibition [4]: Active
